Several values for one entry are separate records, joined by “and”; a condition that tells them apart may be missing. Identical values can stand only once.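 48-hour exposure; five concentrations; linearly interpolated endpoints. The concentration for 50% growth inhibition is given as GI50. TGI denotes the concentration required for complete inhibition of growth.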

Common to all, as to test: growth of human tumour cells (NCI), 48 h
Assay [1] deals with MCF7 breast.
Assay [2] has as its system U251 CNS.
Assay [3] has as its system SW-620 colon.
Assay [4] concerns DU-145 prostate.
Assay [5] relates to SK-MEL-5 melanoma.
For assay [6], the system named is NCI/ADR-RES ovarian.
Assay [7] concerns HS 578T breast.
Assay [8] relates to 786-0 renal.
Assay [9] deals with MALME-3M melanoma.
In assay [10] the test system is SNB-75 CNS.

For the molecule `Cc1cc2c(cc1Cl)SC(=Nc1ccc(Cl)cc1)N(S(=O)(=O)c1ccc(Br)s1)S2(=O)=O`, the GI50 in [1] is 46.3 µM; in [2] it was 8.57 µM; in assay [3] it was 24.5 µM; in assay [4], 13.3 µM; in assay [5], 13.7 µM; in assay [6], 12.2 µM. The results for the GI50 in assay [7] and in assay [8] were 25.3 µM and 11.7 µM, respectively. The TGI in assay [1] is greater than 100 µM; in assay [2] it was 21.4 µM; in assay [3], greater than 100 µM; in [4], 26.1 µM; in assay [5] it was 43.3 µM; in assay [6], 26.5 µM. Besides, the results for the TGI in [7] and in [8] were 62.2 µM and 24.7 µM, respectively.

As to `CC[C@@H]1C(=O)N(C)c2cnc(Nc3ccc(C(=O)NC4CCC(N5CCN(CC6CC6)CC5)CC4)cc3OC)nc2N1C(C)C` (stereo partly specified), the GI50 in assay [1] is 0.00507 µM and < 0.01 µM; in assay [2] it was 0.0263 µM and 0.0276 µM; in assay [3] it was 0.00561 µM and 0.0102 µM; in [9], 0.607 µM and 1.39 µM; in assay [4] it was 0.0118 µM and 0.0379 µM; in assay [5], 0.0409 µM and 0.0472 µM. For the same molecule, the GI50 in [6] is 0.249 µM and 0.245 µM; in assay [7], 0.0323 µM and 0.111 µM; in [8], 0.0614 µM and 0.0721 µM; in [10], 0.0296 µM and 0.0344 µM. Also, the TGI is 2.01 µM and 2.62 µM in assay [1]; > 7.97 µM and 2.14 µM in assay [2]; > 10 µM and 11.1 µM in assay [3]; > 4.91 µM and 3.08 µM in assay [9]; > 10 µM and 16.8 µM in assay [4]; 0.517 µM and 0.654 µM in [5]. For the same molecule, the TGI was > 10 µM and 28.9 µM in assay [6]; 1.97 µM in assay [7]; > 3.29 µM and 1.28 µM in [8]; 6.73 µM in assay [10].

Consider `CN(C)CCN1C(=O)c2cccc3cc(N)cc(c23)C1=O`, for which the GI50 in assay [1] was 1.38 µM; in [2], 2.85 µM; in [3], 2.14 µM; in assay [9] it was 2.41 µM; in assay [4], 1.59 µM; in assay [5], 1.88 µM. The figures for the GI50 in [7], in assay [8] and in [10] were 10.4 µM, 4.16 µM and 3.81 µM, respectively. The TGI in [1] is 22.2 µM and 18.5 µM; in assay [2], > 46.7 µM and 20.6 µM; in assay [3], 24.3 µM and 15.9 µM; in assay [9], 9.85 µM and 8.29 µM; in assay [4], 29.8 µM and 12.9 µM; in assay [5] it was 4.44 µM and 6.46 µM. For the same molecule, the TGI in [6] was > 67.2 µM and 12.2 µM; in assay [7] it was 50.9 µM and 21.2 µM; in assay [8] it was > 81.6 µM and 23 µM; in assay [10], 17 µM and 16.7 µM.

As for `COc1ccc(-c2cc(=O)c3c(C)ccnc3[nH]2)cc1`, the TGI in [1] is greater than 100 µM; in [2] it was greater than 100 µM; in assay [3] it was greater than 100 µM; in assay [9], 65.2 µM; in assay [4], greater than 100 µM; in assay [5], 14.7 µM. Besides, the TGI in [6] was greater than 100 µM; in assay [7] it was 77.1 µM; in [8], greater than 100 µM. In addition, the results for the GI50 in assay [2], in assay [5] and in assay [8] were 6.3 µM, 3.87 µM and 25.3 µM, respectively.

`COc1cccc(C2CC(C)(O)Oc3cc4c(cc32)OCO4)c1` (stereo unspecified): the TGI in assay [1] is greater than 100 µM; in assay [2] it was 86.5 µM; in assay [3], greater than 100 µM; in [9], greater than 100 µM; in [4] it was greater than 100 µM; in assay [5] it was greater than 100 µM. The TGI in [6] is 59.3 µM; in assay [7] it was 49.6 µM; in assay [8] it was greater than 100 µM; in assay [10], 61.7 µM.

For the molecule `Cc1ccc(/C=C/C(=O)c2ccc(F)cc2)s1`, the GI50 in assay [1] is 3.66 µM; in assay [2] it was 2.85 µM; in assay [3] it was 1.96 µM; in [9], 1.74 µM; in [4], 3.41 µM; in [5], 12.2 µM. Moreover, the GI50 in assay [6] was 3.68 µM; in assay [7], 3.35 µM; in assay [8], 3.41 µM; in assay [10] it was 13.4 µM. Also, the TGI in assay [1] was found to be 16.9 µM; in [2], 11.2 µM; in assay [3] it was 3.99 µM; in assay [9], 3.74 µM; in assay [4] it was 11.2 µM; in assay [5] it was 24.9 µM. In addition, the TGI in [6] is 17.6 µM; in assay [7], 9.7 µM; in [8], 14.1 µM; in assay [10], 26.5 µM.

Consider `O=C(O)c1c2c(c(O)c3c1CN(C1CCCCC1)CO3)OCN(C1CCCCC1)C2`, for which the TGI was 39.2 µM in [1]; greater than 100 µM in [2]; 52.5 µM in [3]; greater than 100 µM in [9]; greater than 100 µM in [4]; greater than 100 µM in assay [5]. The TGI in assay [6], in assay [7], in [8] and in assay [10] was greater than 100 µM throughout.

For `O=C(O)C1CCCN1` (stereo unspecified), the TGI in assay [1], in [2], in [3], in [9], in [4] and in assay [5] was greater than 100 µM throughout. The TGI in assay [6], in [7], in assay [8] and in assay [10] was greater than 100 µM each time.

Take `Oc1ccc(CCNc2nc3ccccc3c3[nH]c4ccccc4c23)cc1O`: the GI50 in [1] is 3.13 µM; in [2] it was 2.53 µM; in assay [3] it was 1.66 µM; in assay [9] it was 2.23 µM; in assay [4], 2.45 µM; in [5] it was 3.2 µM. The GI50 in assay [6] was 9.15 µM; in assay [7], 8.28 µM; in assay [8], 1.62 µM; in [10], 15.9 µM. In addition, the TGI in assay [2] was found to be 6.51 µM; in assay [3], 3.44 µM; in assay [9], 6.28 µM; in assay [4], 7.44 µM; in assay [5], 11.5 µM; in [6], 32.2 µM. For the same molecule, the TGI is greater than 100 µM in [7], 2.98 µM in assay [8] and 33.2 µM in assay [10].

The values above are taken from PubChem BioAssay (NCI).
